Test results reported in US11532406B2, “High specific activity preparation of F-18 tetrafluoroborate” (Mayo Foundation for Medical Education and Research, priority 2016, dated 2022).
“Also recorded” adds a separate entry of the source.

Experiments:
[1] = PET/CT imaging of ^18F-TFB in healthy participants (pharmacokinetics, biodistribution); assay type: in vivo, human
From the text: Approval of the study was obtained from the Mayo Clinic Institutional Review Board and all participants provided informed consent. Four male (36±14 y) and four female (35±8 y) healthy volunteers were enrolled in the study. Participants were excluded that had previous diagnosis of cancer or clinically significant cardiovascular, renal, pulmonary, metabolic, and endocrine (thyroid) diseases. Participants were not required to fast prior to the imaging study but instructed to remain well-hydrated.
The imaging protocol is illustrated in FIG. 13. After voiding of the bladder, participants were positioned in a GE 690XT PET/CT scanner (GE HealthCare, Waukesha, Wis.) in a supine position with the heart in the center of the axial field of view. Intravenous catheters were placed in both arms for radiotracer injection and blood sampling. Computed tomography scans of the thorax were initially acquired in the preparation for a dynamic PET data acquisition over the heart for the first 45 min following commencement of radiotracer administration. ^18F-TFB (333-407 MBq) was administered over 1 minute into one of the catheters. The frame sequence for initial dynamic PET acquisition was 15×4, 8×15, 4×30, and 8×300 seconds. Following the dynamic heart scan, the participants were allowed a break from the scanner, during which time voided their bladders. Two additional PET/CT scans, from the vertex of the skull to mid-thigh, were performed at 2 hours and 3.5 hours respectively. The last PET/CT scan was completed ˜4 h post-injection.
All PET scans images were reconstructed using 3D OSEM and time-of-flight reconstruction. Volumes of interest (VOI's) of organs were drawn using PMOD software (Ver. 3.5). Standardized Uptake Values (SUVs) normalized to body weight were then calculated for each VOI. Time-activity curves (TACs) were evaluated from the initial dynamic scan over the heart for left-ventricular blood pool, lung and liver regions.

[2] = Stability of ^18F-TFB (radio-TLC and anion chromatography HPLC); assay type: physicochemical
Method: The product ^18F-TFB was analyzed for radiochemical purity by both radio-TLC (MeOH, Rf=0.8-0.85) and anion chromatography HPLC with radioactivity detector (Dionex IC-2100, AS19 analytical column: 4.7×150 mm; eluent: 35 mM KOH; sample volume: 25.L; flow rate: 1 mL/min; retention times: 7.6 min for ^18F-TFB, […]). Chemical purity and specific activity were analyzed by anion chromatography HPLC (retention times: 3.5 min for fluoride, 4.3 min for chloride, and 7.6 min for BF4—). Residual organic solvents were analyzed by GC (helium carrier gas flow at 10 cc/min through a MXTWAX column (Restek, Bellefonte, Pa., 0.53 mm ID, 30 m length)).
After the synthesis, a sample was diluted with water for the analysis. With the eluent of methanol on silica gel plate, purities of >98% were obtained on the radio-TLC scanner.
^18F-TFB was prepared and formulated in sterile 0.9% NaCl under cGMP conditions as previously described (12). Decay-corrected radiochemical yields of 32±2% and radiochemical purities (RCPs) >98% were obtained. Specific radioactivity of 2.2±0.9 GBq/μmol was achieved from starting ^18F-fluoride radioactivity of 20-31 GBq. In vitro RCP remained >96% up to 8 h at room temperature.

[3] = test system: hNIS-expressing C6 glioma xenograft; test: Dynamic PET imaging in hNIS-expressing C6 glioma xenografted athymic mice; assay type: in vivo
Method: Studies with mice were performed under approval of the Mayo Clinic Institutional Animal Care and Use Committee. Dynamic PET imaging was performed in hNIS-expressing C6 glioma xenografted athymic mice following retro-orbital injection ˜1.1 MBq Na ^18F-TFB at different specific activities (10-0.001 mg TFB/Kg mouse) to assess hNIS activity with ^18F-TFB. In this xenograft model, one flank has hNIS-negative C6 glioma tumor xenograft and the other flank had hNIS-expressing C6 glioma xenograft.
PET scans were acquired for 60 min followed by an X-ray scan using the GENISYS4 PET imaging system (Sofie Biosciences, CA). The images from 40 hNIS-expressing C6 glioma xenografted mice were analyzed for Standardized Uptake Value (SUV) in tumor, stomach, and thyroid using AMIDE image processing software (20). The SUV in tumor was normalized with SUV in stomach to account for difference in ^18F-TFB bioavailability in different animals due to competing uptake in normal organs like thyroid, salivary glands and stomach.

[4] = representative participant, post-administration
[5] = C6-glioma xenograft mouse model, PET

## F[B-](F)(F)[18F] [^18F-TFB, ^18F-tetrafluoroborate]
[1]; females, 2 h post-injection
  PET/CT-derived distribution (SUV), Bone: 0.74 ± 0.20 SUV
  PET/CT-derived distribution (SUV), Brain: 0.42 ± 0.15 SUV
  PET/CT-derived distribution (SUV), Breast: 2.8 ± 0.4 SUV
  PET/CT-derived distribution (SUV), Gallbladder: 3.7 ± 1.0 SUV
  PET/CT-derived distribution (SUV), Intestines: 5.0 ± 2.7 SUV
  PET/CT-derived distribution (SUV), Kidney: 5.6 ± 0.7 SUV
  PET/CT-derived distribution (SUV), Liver: 2.7 ± 0.5 SUV
  PET/CT-derived distribution (SUV), Lung: 1.2 ± 0.4 SUV
  PET/CT-derived distribution (SUV), Muscle: 0.65 ± 0.35 SUV
  PET/CT-derived distribution (SUV), Myocardium: 2.8 ± 0.5 SUV
  PET/CT-derived distribution (SUV), Pancreas: 3.1 ± 1.7 SUV
  PET/CT-derived distribution (SUV), Parotid: 20 ± 11 SUV
  PET/CT-derived distribution (SUV), Spleen: 4.3 ± 1.0 SUV
  PET/CT-derived distribution (SUV), Stomach: 72 ± 10 SUV
  PET/CT-derived distribution (SUV), Thyroid: 50 ± 11 SUV
[1]; females, 3.5 h post-injection
  PET/CT-derived distribution (SUV), Bone: 1.3±0.9 SUV
  PET/CT-derived distribution (SUV), Brain: 0.61 ± 0.34 SUV
  PET/CT-derived distribution (SUV), Breast: 3.9 ± 1.4 SUV
  PET/CT-derived distribution (SUV), Gallbladder: 5.0 ± 1.6 SUV
  PET/CT-derived distribution (SUV), Intestines: 6.0 ± 3.1 SUV
  PET/CT-derived distribution (SUV), Kidney: 6.3 ± 2.4 SUV
  PET/CT-derived distribution (SUV), Liver: 3.5 ± 1.6 SUV
  PET/CT-derived distribution (SUV), Lung: 1.5 ± 0.8 SUV
  PET/CT-derived distribution (SUV), Muscle: 0.78 ± 0.54 SUV
  PET/CT-derived distribution (SUV), Myocardium: 3.8 ± 1.8 SUV
  PET/CT-derived distribution (SUV), Pancreas: 3.0 ± 1.2 SUV
  PET/CT-derived distribution (SUV), Parotid: 25 ± 15 SUV
  PET/CT-derived distribution (SUV), Spleen: 5.5 ± 2.8 SUV
  PET/CT-derived distribution (SUV), Stomach: 51 ± 18 SUV
  PET/CT-derived distribution (SUV), Thyroid: 58 ± 12 SUV
[1]; healthy participants
  blood clearance of radioactivity (left-ventricular blood pool time-activity curve): multiphasic; also recorded: multi-phasic
  urinary clearance: prominent
[1]; males, 2 h post-injection
  PET/CT-derived distribution (SUV), Bone: 0.80 ± 0.33 SUV
  PET/CT-derived distribution (SUV), Brain: 0.39 ± 0.14 SUV
  PET/CT-derived distribution (SUV), Gallbladder: 2.7 ± 1.5 SUV
  PET/CT-derived distribution (SUV), Intestines: 2.9 ± 1.0 SUV
  PET/CT-derived distribution (SUV), Kidney: 7.0 ± 2.5 SUV
  PET/CT-derived distribution (SUV), Liver: 2.3 ± 1.0 SUV
  PET/CT-derived distribution (SUV), Lung: 1.0 ± 0.4 SUV
  PET/CT-derived distribution (SUV), Muscle: 0.71 ± 0.31 SUV
  PET/CT-derived distribution (SUV), Myocardium: 3.2 ± 0.9 SUV
  PET/CT-derived distribution (SUV), Pancreas: 3.4 ± 0.7 SUV
  PET/CT-derived distribution (SUV), Parotid: 11 ± 9 SUV
  PET/CT-derived distribution (SUV), Spleen: 4.1 ± 1.2 SUV
  PET/CT-derived distribution (SUV), Stomach: 33 ± 15 SUV
  PET/CT-derived distribution (SUV), Thyroid: 55 ± 31 SUV
[1]; males, 3.5 h post-injection
  PET/CT-derived distribution (SUV), Bone: 1.4±0.5 SUV
  PET/CT-derived distribution (SUV), Brain: 0.74 ± 0.26 SUV
  PET/CT-derived distribution (SUV), Gallbladder: 4.2 ± 1.7 SUV
  PET/CT-derived distribution (SUV), Intestines: 4.4 ± 1.0 SUV
  PET/CT-derived distribution (SUV), Kidney: 11 ± 3 SUV
  PET/CT-derived distribution (SUV), Liver: 3.6 ± 1.2 SUV
  PET/CT-derived distribution (SUV), Lung: 1.7 ± 0.6 SUV
  PET/CT-derived distribution (SUV), Muscle: 0.96 ± 0.31 SUV
  PET/CT-derived distribution (SUV), Myocardium: 5.0 ± 0.9 SUV
  PET/CT-derived distribution (SUV), Pancreas: 6.2 ± 2.1 SUV
  PET/CT-derived distribution (SUV), Parotid: 16 ± 13 SUV
  PET/CT-derived distribution (SUV), Spleen: 6.3 ± 1.1 SUV
  PET/CT-derived distribution (SUV), Stomach: 70 ± 32 SUV
  PET/CT-derived distribution (SUV), Thyroid: 82 ± 42 SUV
[1]; [4]
  time of peak radioactivity concentration, LVBP: ~1 min
  time of peak radioactivity concentration, liver: ~2 min
  time of peak radioactivity concentration, lung: ~1 min
[1]; whole-body PET/CT at 2 h post-injection
  uptake in thyroid, stomach, salivary glands and kidney: Robust uptake; also recorded: high uptakes
[2]; after 20 h
  HPLC analysis of the product sample, ^18F-TFB peak: chemically stable
[2]; after 20 h, sample diluted with water, silica gel, methanol
  radiochemical purity by radio-TLC after 20 h: > 96%
[2]; up to 8 h at room temperature, in sterile 0.9% NaCl
  In vitro RCP: > 96%
[3]; >13 MBq/μmol compared to 3 MBq/μmol
  uptake by hNIS-expressing tumor versus specific activity: higher at high specific activity
[3]; [5]
  uptake in hNIS-negative tumors: No uptake
  uptake in thyroid, stomach, bladder and hNIS-expressing tumors: Robust uptake
[3]; mouse, in vivo
  stomach uptake versus specific activity: independent of specific activity
[3]; over 60 min
  stomach uptake over 60 min: linear increase
[3]; rapid uptake over first 10 min, slower until 30 min
  uptake kinetic in thyroid and hNIS-expressing tumor: bi-phasic kinetic
